Experimental data as given in publication PMC2939063, “In Vitro and In Vivo Studies of the Trypanocidal Properties of WRR-483 against Trypanosoma cruzi” (PLoS Neglected Tropical Diseases, 2010).
Entries after “also recorded” stand apart in the source; their conditions may differ.

How the values were obtained:
[1] = Toxicology study (SRI international); conditions: in vivo; read-out: no observed adverse effect level (NOAEL)
Excerpt: (§1) In this study, we have identified WRR-483, as an effective agent to treat acute Chagas' disease in a murine model. […] The crystal structure of WRR-483 complexed to cruzain was solved and established the binding mode of the inhibitor to the enzyme. This structure was highlighted by the formation of a salt bridge between the guanidine moiety of the inhibitor and Glu208, but in a different conformation when compared to another structure of cruzain bound to a different arginine-containing inhibitor. […] The no observed adverse effect level (NOAEL) is higher than 100 mg/kg. […] Further studies to understand the precise mechanism of trypanocidal action of WRR-483 and design of analogs with improved bioavailability are currently underway.

calpain-1 = biological target: T1, calpain-1 (Homo sapiens, UniProt P07384); assay: Protease inhibition profiling (Reaction Biology Corp): calpain-1; type: biochemical; conditions: panel of 70 proteases
T1 construct: Reaction Biology Corp (screening service)
T1 sequence (P07384 1-714): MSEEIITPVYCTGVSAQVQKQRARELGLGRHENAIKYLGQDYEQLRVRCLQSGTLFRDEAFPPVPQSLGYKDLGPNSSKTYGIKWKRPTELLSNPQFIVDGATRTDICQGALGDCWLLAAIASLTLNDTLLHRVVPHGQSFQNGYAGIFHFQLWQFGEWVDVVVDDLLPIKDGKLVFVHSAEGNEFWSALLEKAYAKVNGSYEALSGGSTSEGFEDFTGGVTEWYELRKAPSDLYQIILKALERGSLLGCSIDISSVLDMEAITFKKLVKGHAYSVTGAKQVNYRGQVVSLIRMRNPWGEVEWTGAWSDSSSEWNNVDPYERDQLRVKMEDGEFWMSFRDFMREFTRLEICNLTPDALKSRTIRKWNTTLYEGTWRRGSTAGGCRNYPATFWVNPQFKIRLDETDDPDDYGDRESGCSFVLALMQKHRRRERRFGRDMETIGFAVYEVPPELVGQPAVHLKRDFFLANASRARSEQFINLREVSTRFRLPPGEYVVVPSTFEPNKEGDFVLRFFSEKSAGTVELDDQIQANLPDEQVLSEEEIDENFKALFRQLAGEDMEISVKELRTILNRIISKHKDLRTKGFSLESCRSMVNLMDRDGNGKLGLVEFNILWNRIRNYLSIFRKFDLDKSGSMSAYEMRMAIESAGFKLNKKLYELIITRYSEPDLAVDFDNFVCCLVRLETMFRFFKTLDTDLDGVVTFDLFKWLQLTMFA
T1 sequence (P04632 1-268 partner): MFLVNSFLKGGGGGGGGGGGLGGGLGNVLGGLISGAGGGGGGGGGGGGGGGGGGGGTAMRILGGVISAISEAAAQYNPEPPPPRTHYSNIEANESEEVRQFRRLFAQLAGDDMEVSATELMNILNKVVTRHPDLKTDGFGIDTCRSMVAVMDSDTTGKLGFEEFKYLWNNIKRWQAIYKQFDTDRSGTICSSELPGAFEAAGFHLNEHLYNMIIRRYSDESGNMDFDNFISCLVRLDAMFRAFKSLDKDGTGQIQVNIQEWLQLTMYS

[2] = Pharmacokinetic study (SRI international); conditions: in vivo
Excerpt: as §1

Cathepsin S = biological target: T2, Cathepsin S (Homo sapiens, UniProt P25774); assay: Protease inhibition profiling (Reaction Biology Corp): Cathepsin S; type: biochemical
T2 construct: Reaction Biology Corp (screening service)
T2 sequence (P25774 115-331, species assumed): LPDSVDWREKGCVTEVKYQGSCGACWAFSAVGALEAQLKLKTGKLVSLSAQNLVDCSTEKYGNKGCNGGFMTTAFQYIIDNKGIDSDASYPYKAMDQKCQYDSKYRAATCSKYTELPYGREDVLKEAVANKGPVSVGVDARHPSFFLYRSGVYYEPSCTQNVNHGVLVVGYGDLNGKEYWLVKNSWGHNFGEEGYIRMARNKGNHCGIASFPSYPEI

Cathepsin B = biological target: T3, Cathepsin B (Homo sapiens, UniProt P07858); assay: Protease inhibition profiling (Reaction Biology Corp): Cathepsin B; type: biochemical
T3 construct: Reaction Biology Corp (screening service)

[3] = system: T. cruzi CA-I/72 infected C3H mice; assay: Murine model of acute Chagas' disease; type: in vivo, mouse; set-up: key to Histopathology, Heart / Histopathology, Liver / Histopathology, Spleen / Histopathology, Colon: I/I: Inflammation and infiltration; +10A: Numerous nests of T. cruzi amastigotes; +A: 1-3 nests of T. cruzi amastigotes; Negative
Procedure: Three to four week old female C3H mice weighing ca. 20 g were used. The animals were separated into five lots of 5 mice per cage and infected with 10^6 tissue-culture derived trypomastigotes of the myotropic T. cruzi CA-I/72 cloned stock. The mice were treated with 100 mg compound/kg of body weight in 100 µL of solution (30–40% DMSO: 60–70% sterile distilled water) intraperitoneally twice a day. Treatment was initiated 12 h post infection and continued until cure, death of the animals, or for a total of 20 days. […] Parasitemias was determined at the end of the experiment when animals were euthanized. Tissues processed for histopathology include skeletal muscle, heart, liver, spleen, and colon. Blood (5–50 µL) was used for hemocultures. […] Compounds were considered toxic if life expectancy is lower than untreated controls (negative values). If necessary, PCR of blood and tissues was performed to confirm effectiveness of treatment and/or cure of treated animals. Results were expressed as survival (days) of treated animals.

[4] = system: T. cruzi infected J774 macrophages; assay: T. cruzi growth inhibition in infected J774 macrophages (cell survival); type: cell-based, Trypanosoma cruzi CA-I/72; conditions: 10 µM inhibitor every 48 h until Day 27, experiment terminated on Day 47, untreated control 6 days
Procedure: CA-I/72 T. cruzi parasites were isolated from a chronic Chagasic patient, cloned, and maintained as previously described.[33]
For growth inhibition studies, J774 macrophages cultured in RPMI-1640 medium with 5% heat inactivated fetal calf serum (FCS) were irradiated (9000 rad) to arrest the cell cycle and plated onto 12-well tissue culture plates for 24 h at 37°C. After infection with 10^5 T. cruzi trypomastigotes per well for 2 hours, monolayers were washed with RPMI medium and treated with the inhibitors at 10 µM in RPMI medium (triplicate wells per inhibitor). Inhibitor stocks were made to 10 mM in DMSO and diluted prior to use. All assays include untreated, K11777-treated, and uninfected macrophage controls. Fresh medium with or without inhibitor was replaced every 48 h and inhibitor efficacy was monitored daily. Survival time was defined as the time before the cell monolayer was destroyed by the infection. Under these culture conditions, T. cruzi completed the intracellular cycle in 6 days in untreated controls. […] Macrophages were subsequently cultured in normal medium for up to 40 days to elucidate if the effective inhibitors were trypanocidal (cure host macrophages) or trypanostatic (delay intracellular cycle of the parasite).

Cathepsin L = biological target: T4, Cathepsin L (Homo sapiens, UniProt P07711); assay: Protease inhibition profiling (Reaction Biology Corp): Cathepsin L; type: biochemical
T4 construct: Reaction Biology Corp (screening service)
T4 sequence (P07711 114-333, species assumed): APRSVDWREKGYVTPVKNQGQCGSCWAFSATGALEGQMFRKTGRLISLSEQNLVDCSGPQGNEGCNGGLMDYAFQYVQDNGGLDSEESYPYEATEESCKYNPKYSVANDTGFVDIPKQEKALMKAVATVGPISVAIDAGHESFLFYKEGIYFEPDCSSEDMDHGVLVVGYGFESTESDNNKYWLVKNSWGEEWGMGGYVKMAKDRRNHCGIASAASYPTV

[5] = individual infected mice, 100 mg/kg ip
[6] = individual infected mice, 100 mg/kg ip, 100 mg/kg

With `CN1CCN(C(=O)N[C@@H](CCCNC(=N)N)C(=O)N[C@H](/C=C/S(=O)(=O)c2ccccc2)CCc2ccccc2)CC1` [WRR-483] the NOAEL [1] was over 100 mg/kg, the “inhibition of calpain-1” value (calpain-1) was “no inhibition” and the Vd ([2]; 10 mg dose iv) was 15.1 L/kg. The clearance ([2]; 10 mg dose iv) was 27.5 mL/min/kg, the half-life ([2]; 10 mg dose iv) was 384 min and the bioavailability ([2]; oral, read-out: oral bioavailability %F) was under 1%. For the same compound, the IC50 (Cathepsin S) was 1.4 ± 0.01 nM, the IC50 (Cathepsin B) was 3.9 ± 0.1 nM and the “T. cruzi infected mouse survival” value ([3]; 100 mg inhibitor/kg body weight in two daily doses, intraperitoneally, untreated control 21 days) was 110 days. The “survival of the acute infection” value ([3]; 10^6 trypomastigotes CA-I/72, untreated controls died within 21–60 days) was “survived the acute infection”, the “Histopathology, Colon” value [3, 5] was “N” and the “Histopathology, Liver” value [3, 5] was “N”. For the same compound, the “Histopathology, Spleen” value [3, 5] was “N”, the “Histopathology, Heart” value [3, 6] was “N and Mild i/i” and the “Histopathology, Sk. muscle” value [3, 6] was “Moderate i/i; also recorded: +AIntense i/i”. The “T. cruzi infected cell survival” value [4] was 47 days and the IC50 (Cathepsin L) was 53 ± 4 nM.
